According to US5089623A, “Certain imidate insecticides” (Imperial Chemical Industries Plc, priority 1990, dated 1992):

Experiments:
Type in all cases: in vivo
[1] = system: Cabbage Looper [Trichoplusia ni (Hubner)]; assay: Cabbage looper test (CL); settings: second-instar larvae, 3-5 days, percent in solution
[2] = system: Tobacco Budworm [Heliothis virescens (Fabricius)] eggs; assay: Tobacco budworm egg test (TBW-E); settings: percent in solution
[3] = system: Aster Leafhopper [Macrosteles fascifrens (Stal)]; assay: Aster leafhopper test (LH); settings: adults/nymphs, 48 hours, percent in solution
[4] = system: Maize weevil [Sitophilus Zeamais (Motschulsky)]; assay: Maize weevil test (MW); settings: adult weevils, treated corn seeds, 48 hours, percent in solution
How it was run: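 Adult weevils (10) were placed with four corn seeds that had been dipped 2-3 s in compound dissolved in 50:50 acetone:water, then dried, and held at about 25° C. Mortality was scored at 48 h. LC50 was taken from dosage-mortality curves and expressed as percent compound in solution, from a 0.01% top concentration.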

[5] = system: Housefly [Musca domestica]; assay: Housefly insecticidal test (HF); settings: per 25 female houseflies, 48 hours

Compound	LC50 CL [1] [%]	LC50 TBW E [2] [%]	LC50 LH [3] [%]	LC50 MW [4] [%]	LC50 HF [5] [µg]
c1ccc(Oc2cccc(COC(=Nc3ccc4c(c3)OCO4)C3CC3)c2)cc1 [Compound 177]	0.002	> 0.1	> 0.05	0.01	13
FC(F)(F)C(=Nc1ccc(Cl)cc1)OCc1cccc(Oc2ccccc2)c1 [Compound 35]	0.008	0.03	> 0.05	> 0.01	15
Cc1cccc(N=C(OCc2cccc(Oc3ccc(Cl)cc3)n2)C(C)C)c1 [Compound 545]	> 0.1	> 0.1	> 0.05	> 0.01	< 100
CC(C)C(=Nc1ccc(Cl)c(C(F)(F)F)c1)OCc1cccc(Oc2ccc(F)cc2)c1 [Compound 193]	0.00075	> 0.1	0.001	> 0.01	100
CCC(=Nc1ccc2c(c1)OCO2)OCc1cccc(Oc2ccccc2)c1 [Compound 178]	0.004	> 0.1	> 0.05	> 0.01	6
CC(C)C(=Nc1ccc(F)c(Cl)c1)OCc1cc(Oc2ccc(F)cc2)ccn1 [Compound 529]	> 0.0025	> 0.1	> 0.05	> 0.01	27.7
CC(C)C(=Nc1ccc([N+](=O)[O-])cc1)OCc1coc(Cc2ccccc2)c1 [Compound 539]	> 0.1	> 0.1	> 0.05	> 0.01	22
CC(C)(C)C(=Nc1ccc(Cl)c(Cl)c1)OCc1cccc(Oc2ccccc2)c1 [Compound 25]	0.01	> 0.1	> 0.05	> 0.01	> 100
CC(C)C(=Nc1ccc(Cl)cc1)OCc1cccc(Oc2ccc(F)cc2)c1 [Compound 189]	0.00027	0.07	0.002	> 0.01	17
CC(C)C(=Nc1ccc(Cl)c(Cl)c1)OCc1cccc(Nc2ccc(F)cc2)c1 [Compound 514]	0.008	> 0.1	> 0.05	> 0.01	> 100
CC(C)C(=Nc1ccc(OC(F)(F)F)cc1)OCc1cccc(Cc2ccccc2)c1 [Compound 542]	> 0.01	> 0.1	> 0.05	> 0.01	> 100
CC(C)(F)C(=Nc1ccc(F)c(Cl)c1)OCc1cc(Oc2ccc(F)cc2)ccc1F [Compound 316]	0.0015	> 0.1	> 0.05	> 0.01	100
COCc1c(F)c(F)c(COC(=Nc2ccc(F)c(Cl)c2F)C(C)C)c(F)c1F [Compound 522]	> 0.1	> 0.1	0.05	> 0.01	17.5
Cc1c(COC(=Nc2ccc(C(C)(C)C)cc2)C(C)C)cccc1-c1ccccc1 [Compound 536]	< 0.1	> 0.1	> 0.05	> 0.01	> 100
Fc1ccc(N=C(OCc2cccc(Oc3ccccc3)c2)C(F)(F)C(F)(F)F)cc1Cl [Compound 117]	0.006	> 0.1	0.0003	> 0.01	55
CC(C)C(=Nc1ccc(F)cc1)OCc1cccc(Oc2ccc(Br)cc2)c1 [Compound 259]	0.0003	0.05	> 0.05	> 0.01	15
